Test results: ChEMBL document CHEMBL1201862, “PubChem BioAssay data set” (2004)
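How tested: cells in 96-well plates exposed to compound for 48 hours at five concentrations. At the GI50, growth is halved.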 The source made the active and inactive calls. Cut-off read from the data, not from the text of the source: active = GI50 up to about 1.1 µM and inactive = higher.

What was measured:
Test in all cases: inhibition of tumour cell growth, NCI panel, 48 h
SNB-19 = system: SNB-19
OVCAR-8 = system: OVCAR-8
MCF7 = system: MCF7
HCT-15 = system: HCT-15
MOLT-4 = system: MOLT-4
HL-60 = system: HL-60
A549 = system: A549
SNB-75 = system: SNB-75
NCI-H23 = system: NCI-H23
LOX IMVI = system: LOX IMVI
SN12C = system: SN12C
Hs-578T = system: Hs-578T
MDA-MB-231 = system: MDA-MB-231
HCT-116 = system: HCT-116
DU-145 = system: DU-145
NCI-H226 = system: NCI-H226
NCI-H460 = system: NCI-H460
HT-29 = system: HT-29
SF-268 = system: SF-268
CCRF-CEM = system: CCRF-CEM

| Structure (SMILES) | GI50 (SNB-19) | GI50 (OVCAR-8) | GI50 (MCF7) | GI50 (HCT-15) [µM] | GI50 (MOLT-4) | GI50 (HL-60) | GI50 (A549) | GI50 (SNB-75) | GI50 (NCI-H23) | GI50 (LOX IMVI) | GI50 (SN12C) | GI50 (Hs-578T) | GI50 (MDA-MB-231) | GI50 (HCT-116) | GI50 (DU-145) | GI50 (NCI-H226) | GI50 (NCI-H460) | GI50 (HT-29) | GI50 (SF-268) | GI50 (CCRF-CEM) |
| --- | --- | --- | --- | --- | --- | --- | --- | --- | --- | --- | --- | --- | --- | --- | --- | --- | --- | --- | --- | --- |
| COCC(/N=C\N1CCCc2ccccc2[C@@H]1CCCCl)C(C)(C)C (stereo not given in full) | 18.7 µM (inactive) | 15.5 µM (inactive) | 0.351 µM (active) | 41.9 | 1.71 µM (inactive) | 0.619 µM (active) | 13.4 µM (inactive) | 3.01 µM (inactive) | 0.421 µM (active) | 8.41 µM (inactive) | 17.1 µM (inactive) | 0.0184 µM (active) | 3.49 µM (inactive) | 1.23 µM (inactive) | > 100 µM (inactive) | 5.28 µM (inactive) | 35.7 µM (inactive) | 1.54 µM (inactive) | > 100 µM (inactive) | 0.444 µM (active) |
| O=C(CC(=O)N(C(=O)/C=C\c1ccccc1)c1ccc(Cl)cc1)N1N=C(c2ccccc2)C(/N=N/c2cccc([N+](=O)[O-])c2)C1=O (stereo not given) | 13.9 µM (inactive) | 3.78 µM (inactive) | 3.45 µM (inactive) | 1.36 | 2.56 µM (inactive) | 2.84 µM (inactive) | 5.05 µM (inactive) | 11.9 µM (inactive) | 8.28 µM (inactive) | 2.98 µM (inactive) | 1.29 µM (inactive) | 18.4 µM (inactive) | 0.971 µM (active) | 3.37 µM (inactive) | 13.3 µM (inactive) | 13.2 µM (inactive) | 3.63 µM (inactive) | 2.42 µM (inactive) | 4.23 µM (inactive) | 1.36 µM (inactive) |
| COC(=O)[C@H](Cc1ccc(OC(C)(C)C)cc1)N[C@H](C)C(=O)N[C@@H](Cc1ccccc1)C(=O)OCc1ccccc1 | > 100 µM (inactive) | 52.2 µM (inactive) | 34.5 µM (inactive) | > 100 | 20 µM (inactive) | 45.5 µM (inactive) | 46.6 µM (inactive) | 57.1 µM (inactive) | > 100 µM (inactive) | 34.4 µM (inactive) | 26.9 µM (inactive) | > 100 µM (inactive) | > 100 µM (inactive) | 35.6 µM (inactive) | > 100 µM (inactive) | 25.8 µM (inactive) | > 100 µM (inactive) | 47.2 µM (inactive) | > 100 µM (inactive) | 40.2 µM (inactive) |
| CC#CC#C/C=C1/O[C@]2(CCC(OC(C)=O)CO2)[C@@H]2O[C@H]12 (stereo not given in full) | 27.7 µM (inactive) | 32.8 µM (inactive) | 26.5 µM (inactive) | 16.6 | 17 µM (inactive) | 18.4 µM (inactive) | 29.6 µM (inactive) | 80.5 µM (inactive) | 19.4 µM (inactive) | 15.1 µM (inactive) | 20.6 µM (inactive) | 40.3 µM (inactive) | 23 µM (inactive) | 17.8 µM (inactive) | 30.5 µM (inactive) | 20.4 µM (inactive) | 18.1 µM (inactive) | 28.9 µM (inactive) | 27.8 µM (inactive) | 14.7 µM (inactive) |
| CC(C)(C)N1Cc2ccccc2/C(=C/Sc2ccccc2)C1=O | 16 µM (inactive) | 8.11 µM (inactive) | 7.19 µM (inactive) | 12.9 | 3.21 µM (inactive) | 13.5 µM (inactive) | 16.2 µM (inactive) | 16 µM (inactive) | 6.84 µM (inactive) | 2.64 µM (inactive) | 8.17 µM (inactive) | 16.7 µM (inactive) | 16.5 µM (inactive) | 7.03 µM (inactive) | 16.9 µM (inactive) | 8.83 µM (inactive) | 14.9 µM (inactive) | 17 µM (inactive) | 2.44 µM (inactive) | 5.25 µM (inactive) |
| O=C1NC(=O)C(F)(n2cc(F)c(=O)[nH]c2=O)C(O)N1 (stereo not given) | > 10 µM (inactive) | > 10 µM (inactive) | > 10 µM (inactive) | > 10 | > 10 µM (inactive) | > 10 µM (inactive) | > 10 µM (inactive) | > 10 µM (inactive) | > 10 µM (inactive) | > 10 µM (inactive) | > 10 µM (inactive) | > 10 µM (inactive) | > 10 µM (inactive) | > 10 µM (inactive) | > 10 µM (inactive) | > 10 µM (inactive) | > 10 µM (inactive) | > 10 µM (inactive) | > 10 µM (inactive) | > 10 µM (inactive) |
